# Test results: US20060211760A1, “Indolamide derivatives which possess glycogen phosphorylase inhibitory activity” (AstraZeneca AB, priority 2003, published 2006)
# Experiments:
# [1] = tested on: conscious dogs; details: following a glucagon challenge; cited from earlier work
# [2] = tested on: db/db and ob/ob mice; details: db/db and ob/ob mice following treatment; cited from earlier work
# [3] = tested on: hepatocytes; details: cited from earlier work
# [4] = target: T1, Human recombinant liver glycogen phosphorylase a (hrl GPa) (Homo sapiens, UniProt P06737); test: glycogen phosphorylase inhibition, multienzyme coupled assay of glucose-1-phosphate production from glycogen; type: biochemical; details: hrl GPa 20 nM, 6 hours at 30° C., 1% DMSO
# T1 sequence (P06737 1-847): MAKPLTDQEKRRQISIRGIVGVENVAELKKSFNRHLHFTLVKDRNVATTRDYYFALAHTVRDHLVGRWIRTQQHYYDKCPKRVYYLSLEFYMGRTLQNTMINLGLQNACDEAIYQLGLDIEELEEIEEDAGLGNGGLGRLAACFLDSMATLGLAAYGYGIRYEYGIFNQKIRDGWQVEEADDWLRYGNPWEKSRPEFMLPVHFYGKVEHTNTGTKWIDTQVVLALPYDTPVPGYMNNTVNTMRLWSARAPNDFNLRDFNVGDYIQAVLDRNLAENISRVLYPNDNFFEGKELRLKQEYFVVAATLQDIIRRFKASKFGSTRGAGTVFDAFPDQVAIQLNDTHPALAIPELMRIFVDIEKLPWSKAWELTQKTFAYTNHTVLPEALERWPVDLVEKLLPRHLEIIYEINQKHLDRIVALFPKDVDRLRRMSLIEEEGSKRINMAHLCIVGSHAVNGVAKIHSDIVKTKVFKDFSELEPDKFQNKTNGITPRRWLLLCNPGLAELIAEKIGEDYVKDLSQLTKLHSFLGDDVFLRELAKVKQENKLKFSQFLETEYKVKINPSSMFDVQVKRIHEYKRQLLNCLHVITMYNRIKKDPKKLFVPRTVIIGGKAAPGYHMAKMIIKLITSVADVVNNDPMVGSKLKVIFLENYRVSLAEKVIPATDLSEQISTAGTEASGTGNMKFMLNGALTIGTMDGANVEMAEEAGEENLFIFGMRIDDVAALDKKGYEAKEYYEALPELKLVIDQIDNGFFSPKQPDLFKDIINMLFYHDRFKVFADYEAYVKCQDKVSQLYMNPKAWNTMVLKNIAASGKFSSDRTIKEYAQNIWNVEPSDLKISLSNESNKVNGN
# Method: The activity of the compounds is determined by measuring the inhibitory effect of the compounds on glycogen degradation, the production of glucose-1-phosphate from glycogen is monitored by the multienzyme coupled assay, as described in EP 0 846 464 A2, general method of Pesce et al (Pesce, M A, Bodourian, S H, Harris, R C, and Nicholson, J F (1977) Clinical Chemistry 23, […]). The reactions were in 384well microplate format in a volume of 50 μl. The change in fluorescence due to the conversion of the co-factor NAD to NADH is measured at 340 nm excitation, 465nm emission in a Tecan Ultra Multifunctional Microplate Reader. The reaction is in 50 mM HEPES, 3.5 mM KH2PO4, 2.5 mM MgCl2, 2.5 mM ethylene glycol-bis(b-aminoethyl ether) N,N,N′,N′-tetraacetic acid, 100 mM KCl, 8 mM D-(+)-glucose pH7.2, containing 0.5 mM dithiothreitol, the assay buffer solution. Human recombinant liver glycogen phosphorylase a (hrl GPa) 20 nM is pre-incubated in assay buffer solution with 6.25 mM NAD, 1.25 mg type m glycogen at 1.25 mg ml^−1 the reagent buffer, for 30 minutes. […] The non-inhibited activity of GPa is measured in the presence of 10 μl 5% DMSO in assay buffer solution and maximum inhibition measured in the presence of 5 mgs ml^−1 N-ethylmaleimide. […] Relative Fluoresence Units (RFUs) are measured at 340 nm excitation, 465 nm emission. […]
IC50 [4],Compound,arterial plasma glucose [1],hepatic glucose output [1],plasma glucose concentration [2],glucagon stimulated glycogenolysis [3],glucose output [3]
–,CCN1C(C)=C(C(=O)OC(C)C)C(c2ccccc2Cl)C2=C1COC2=O (stereo not drawn) [Bay R 3401],reduced significantly,reduced significantly,–,–,–
–,CN(C)C(=O)[C@H](O)[C@H](Cc1ccccc1)NC(=O)c1cc2cc(Cl)ccc2[nH]1 [CP91149],–,–,"reduced, in a dose related manner",reduce,reduce
–,O=C(N[C@@H](Cc1ccc(F)cc1)C(=O)N1CCC(O)CC1)c1cc2cc(Cl)ccc2[nH]1 [CP320626],–,–,"reduced, in a dose related manner",reduce,reduce
868 nM,"O=C(N[C@@H]1Cc2ccccc2[C@H]1CO)c1cc2cc(Cl)ccc2[nH]1 [Example 2, 5-Chloro-N-[(1R,2R)-1-(hydroxymethyl)-2,3-dihydro-1H-inden-2-yl]-indole-2-carboxamide]",–,–,–,–,–
